Where two headings read alike, the source gives them in different places.
Experiments:
AnKir1 = AnKir1 (Anopheles gambiae, UniProt A0A075M2J8); experiment: thallium (Tl+) flux assay; type: cell-based
Description: (§1) The thallium flux assay is an in vitro method of measuring conductance through a potassium ion channel. Potassium channels are also permeable to thallium ions. The modulation of a K^+ channel will thus increase or decrease thallium ion flow through the channel and thus, alter the observed fluorescence of a thallium-specific indicator dye.
After 1 hr incubation at room temperature, the dye-loading solution was washed from the plates and replaced with 20 μL/well of assay buffer. The plates were transferred to a Hamamatsu Functional Drug Screening System 6000 (FDSS6000; Hamamatsu, Tokyo, Japan), where 20 μL/well of each of the test compounds in assay buffer was added and allowed to incubate with the cells for 20 min. After incubation, a baseline recording was collected at 1 Hz for 10 s (excitation 470±20 nm, emission 540±30 nm); a thallium stimulus buffer was then added (10 μL/well), and data were then collected for an additional 4 min. […] To ensure the small-molecule vehicle DMSO had no direct effect on AnKir1-dependent Tl^+ flux, the assay's tolerance to different doses of DMSO was evaluated. The robustness and reproducibility of the assay was determined by comparing Tl^+ flux through tetracycline-induced and tetracycline-free cells. The Z′ value was calculated as:
Z′=1−(3SDp+3SDn)/|meanp+meann| where SD is standard deviation, and p and n are control and uninduced flux values, respectively. To compare the effect of DMSO on AnKir1-mediated Tl^+ flux, a one-way ANOVA was performed with a Tukey's multiple comparison test. Prism software (GraphPad Software) was used to generate CRC from Tl^+ flux. Half-inhibition concentration (IC50) values were calculated from fits using a four parameter logistic equation.
Test compounds were transferred to daughter, 384-well polypropylene plates (Greiner Bio-One, Monroe, N.C.) with an Echo555 liquid handler (Labcyte, Sunnyvale, Calif.), and then diluted into assay buffer to generate a 2× stock in 0.6% DMSO (0.3% final). […] Concentration-response curves (CRCs) were generated by screening compounds at 3-fold dilution series (1 nM-30 μM).
Tl^+ flux data were analyzed using Excel (Microsoft Corp, Redmond, Wash.) with XLfit add-in (IDBS, Guildford, Surrey, UK), OriginPro (Origin Lab, Northampton, Mass.), and GraphPad Prism (GraphPad Software, San Diego, Calif., USA) software. Raw data were opened in Excel and each data point in a given trace was divided by the first data point from that trace (static ratio) followed by subtraction of data points from control traces generated with vehicle controls. The slope of the fluorescence increase beginning 5 s after Tl^+ addition and ending 15 s after Tl^+ addition was calculated.
To perform Tl+ flux assays, stably transfected T-Rex-HEK-293 cells expressing AnKir1 channels were cultured overnight in 384-well plates (20,000 cells/20 μL/well), black-walled, clear-bottomed BD Pure Coat amine-coated plates (BD, Bedford, Mass.) with a plating media containing DMEM, 10% dialyzed FBS and 1 μg/mL tetracycline. […] Following 1 hr incubation at room temperature, the dye-loading solution was washed from the plates and replaced with 20 μL/well of assay buffer.

Ae. aegypti = experiment: mosquito fecundity, eggs laid; type: in vivo, Aedes aegypti; conditions: 72 h post blood feeding; 3.4 μg/mg mosquito
Description: The mosquitoes were returned to rearing conditions for 24 h, after which they were transferred to individual egg-laying glass tubes 21 mm×70 mm (Fisher Scientific, Pittsburgh, Pa.) with a piece of coffee filter ([…] USA, Clearwater, Fla.) cut to fit the bottom of the tube. The filter was wetted with 150 μl of dH2O, and the open end of the tube was plugged with a cotton ball. The mosquitoes in their individual egg laying tubes were returned to rearing conditions for an additional 48 h, and the number of eggs laid was counted. Any mosquitoes that died during the 72 h period after blood feeding were excluded from the analysis.

Kir6.2/SUR1 = Kir6.2/SUR1 (Homo sapiens (Human), UniProt Q09428+Q14654); experiment: thallium (Tl+) flux assay; type: cell-based, mammalian
Description: as §1
(§2) Stably transfected T-Rex-HEK-293-AnKir1 cells were cultured overnight in 384-well plates in media containing DMEM, 10% dialyzed FBS, and 1 μg/mL tetracycline to induce channel expression. The next day the cell culture medium was replaced with a dye-loading solution containing assay buffer (Hanks Balanced Salt Solution with 20 mM HEPES, pH 7.3), 0.01% (w/v) Pluronic F-127 (Life Technologies, Carlsbad, Calif.), and 1.2 μM of the thallium-sensitive dye Thallos-AM (TEFlabs, Austin, Tex.). After 1 hr incubation at room temperature, the dye-loading solution was washed from the plates and replaced with 20 μL/well of assay buffer. […] To ensure the small-molecule vehicle DMSO had no direct effect on AnKir1-dependent Tl^+ flux, the assay's tolerance to different doses of DMSO was evaluated. The robustness and reproducibility of the assay was determined by comparing Tl^+ flux through tetracycline-induced and tetracycline-free cells. The Z′ value was calculated as:
(§3) Z′=1−(3SDp+3SDn)/|meanp+meann| where SD is standard deviation, and p and n are control and uninduced flux values, respectively. […] Half-inhibition concentration (IC50) values were calculated from fits using a four parameter logistic equation. […]
(§4) Tl^+ flux data were analyzed using Excel (Microsoft Corp, Redmond, Wash.) with XLfit add-in (IDBS, Guildford, Surrey, UK), OriginPro (Origin Lab, Northampton, Mass.), and GraphPad Prism (GraphPad Software, San Diego, Calif., USA) software. […] The slope of the fluorescence increase beginning 5 s after Tl^+ addition and ending 15 s after Tl^+ addition was calculated.

Kir4.1 = Kir4.1 (Homo sapiens (Human), UniProt P78508); experiment: thallium (Tl+) flux assay; type: cell-based, mammalian; conditions: means (n = 3); read-out: IC50 μM (95% Cl)
Description: as §1, §2, §3, §4

Chain of AnKir1 (A0A075M2J8 1-555): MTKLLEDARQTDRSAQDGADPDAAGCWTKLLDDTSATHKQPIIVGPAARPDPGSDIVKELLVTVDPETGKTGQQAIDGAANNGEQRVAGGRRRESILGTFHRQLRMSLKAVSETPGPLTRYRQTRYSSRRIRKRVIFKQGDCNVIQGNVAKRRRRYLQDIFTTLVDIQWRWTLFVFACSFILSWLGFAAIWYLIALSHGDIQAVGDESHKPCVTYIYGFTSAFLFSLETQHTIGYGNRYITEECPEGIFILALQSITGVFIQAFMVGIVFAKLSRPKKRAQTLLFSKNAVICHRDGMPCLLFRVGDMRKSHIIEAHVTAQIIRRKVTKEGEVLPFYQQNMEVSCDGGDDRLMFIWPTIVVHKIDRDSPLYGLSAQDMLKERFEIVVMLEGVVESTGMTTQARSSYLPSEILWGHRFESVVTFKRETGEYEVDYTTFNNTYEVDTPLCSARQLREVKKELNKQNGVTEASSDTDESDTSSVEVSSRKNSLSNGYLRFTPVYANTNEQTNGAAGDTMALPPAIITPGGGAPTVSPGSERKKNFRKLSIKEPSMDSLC
Chain of Kir6.2/SUR1 (Q14654 whole entry): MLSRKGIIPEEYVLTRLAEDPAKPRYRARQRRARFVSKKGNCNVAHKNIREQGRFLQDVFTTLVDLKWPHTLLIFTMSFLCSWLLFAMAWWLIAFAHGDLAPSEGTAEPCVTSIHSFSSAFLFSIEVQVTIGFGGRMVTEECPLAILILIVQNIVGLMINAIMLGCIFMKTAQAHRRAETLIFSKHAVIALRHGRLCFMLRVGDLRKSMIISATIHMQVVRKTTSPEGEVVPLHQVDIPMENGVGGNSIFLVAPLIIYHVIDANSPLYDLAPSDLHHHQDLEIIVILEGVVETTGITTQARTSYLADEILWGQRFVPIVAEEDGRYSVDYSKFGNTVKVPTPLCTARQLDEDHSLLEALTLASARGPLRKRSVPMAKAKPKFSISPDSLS
Chain of Kir6.2/SUR1 (Q09428 whole entry): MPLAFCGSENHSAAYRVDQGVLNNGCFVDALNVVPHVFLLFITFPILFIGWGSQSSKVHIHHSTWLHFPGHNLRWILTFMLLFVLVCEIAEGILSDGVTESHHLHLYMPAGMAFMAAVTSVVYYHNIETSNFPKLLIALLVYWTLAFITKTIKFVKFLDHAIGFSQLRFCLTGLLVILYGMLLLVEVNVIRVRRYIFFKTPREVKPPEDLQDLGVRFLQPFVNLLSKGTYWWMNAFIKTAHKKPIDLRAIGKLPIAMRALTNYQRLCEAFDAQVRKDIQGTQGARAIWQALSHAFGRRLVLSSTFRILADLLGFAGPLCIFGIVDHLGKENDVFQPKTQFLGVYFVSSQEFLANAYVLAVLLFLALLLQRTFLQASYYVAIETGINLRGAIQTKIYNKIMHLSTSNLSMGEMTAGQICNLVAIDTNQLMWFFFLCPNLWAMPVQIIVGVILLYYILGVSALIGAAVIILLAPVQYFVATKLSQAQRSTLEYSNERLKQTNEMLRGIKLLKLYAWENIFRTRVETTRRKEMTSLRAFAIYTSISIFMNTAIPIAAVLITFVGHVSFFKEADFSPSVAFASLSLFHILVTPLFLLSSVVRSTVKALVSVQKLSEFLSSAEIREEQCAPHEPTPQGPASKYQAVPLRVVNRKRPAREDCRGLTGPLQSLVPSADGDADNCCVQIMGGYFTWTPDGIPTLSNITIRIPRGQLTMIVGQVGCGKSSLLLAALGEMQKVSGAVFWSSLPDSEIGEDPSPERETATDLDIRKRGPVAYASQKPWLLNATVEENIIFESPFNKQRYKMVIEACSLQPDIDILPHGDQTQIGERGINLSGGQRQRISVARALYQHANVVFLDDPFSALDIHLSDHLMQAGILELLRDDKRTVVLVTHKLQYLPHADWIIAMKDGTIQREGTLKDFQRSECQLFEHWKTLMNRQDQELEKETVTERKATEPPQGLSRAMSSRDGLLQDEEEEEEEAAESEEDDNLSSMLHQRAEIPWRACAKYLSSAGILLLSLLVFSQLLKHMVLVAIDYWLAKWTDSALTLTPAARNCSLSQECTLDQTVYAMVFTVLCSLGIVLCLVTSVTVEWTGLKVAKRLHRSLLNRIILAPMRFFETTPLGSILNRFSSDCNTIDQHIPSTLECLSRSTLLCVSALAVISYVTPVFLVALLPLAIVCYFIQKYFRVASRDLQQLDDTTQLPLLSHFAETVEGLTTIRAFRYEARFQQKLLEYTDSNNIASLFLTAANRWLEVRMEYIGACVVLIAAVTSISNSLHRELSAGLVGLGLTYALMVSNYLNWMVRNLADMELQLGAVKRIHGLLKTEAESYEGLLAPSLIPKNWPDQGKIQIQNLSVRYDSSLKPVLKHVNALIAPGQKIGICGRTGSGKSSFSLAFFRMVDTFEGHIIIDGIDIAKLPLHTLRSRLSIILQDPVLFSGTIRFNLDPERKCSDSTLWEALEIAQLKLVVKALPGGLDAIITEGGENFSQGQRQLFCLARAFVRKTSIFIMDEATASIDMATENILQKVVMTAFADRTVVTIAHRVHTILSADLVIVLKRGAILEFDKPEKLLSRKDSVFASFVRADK
Chain of Kir4.1 (P78508 whole entry): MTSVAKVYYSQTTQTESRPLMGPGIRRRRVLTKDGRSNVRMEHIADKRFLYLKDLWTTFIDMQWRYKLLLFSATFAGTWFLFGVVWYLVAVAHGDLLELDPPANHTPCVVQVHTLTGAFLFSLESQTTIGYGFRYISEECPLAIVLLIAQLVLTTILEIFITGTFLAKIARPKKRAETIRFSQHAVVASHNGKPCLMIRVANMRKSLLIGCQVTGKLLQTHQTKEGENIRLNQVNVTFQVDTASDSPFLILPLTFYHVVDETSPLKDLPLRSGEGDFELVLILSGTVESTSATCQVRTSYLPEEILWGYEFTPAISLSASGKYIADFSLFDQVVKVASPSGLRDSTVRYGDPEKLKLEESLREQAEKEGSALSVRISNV

Compound | IC50 (AnKir1; SAR libraries, read-out: AnKir1 IC50) [µM] | IC50 (AnKir1; means (n = 3), selectivity panel, read-out: IC50 μM (95% Cl)) [µM] | median number of eggs laid per mosquito (Ae. aegypti) | inhibition at 30 µM (Kir6.2/SUR1; concentration of 30 μM) [%] | IC50 (Kir6.2/SUR1; means (n = 3), read-out: IC50 μM (95% Cl)) [µM] | IC50 (Kir4.1) [µM] | AnKir1 IC50 (μM) (AnKir1; SAR libraries, listed as 18) | AnKir1 IC50 (μM) (AnKir1; SAR libraries, listed as Compound 18)
O=C(Cn1nc(C(F)(F)F)c2c1CCCC2)N1CCCc2ccccc21 [VU041, 1-(3,4-dihydroquinolin-1(2H)-yl)-2-(3-(trifluoromethyl)-4,5,6,7-tetrahydro-1H-indazol-1-yl)ethan-1-one] | 2.3 | 2.5 | significantly lower median number of eggs per mosquito | < 10 | > 30 | > 30 | – | –
O=C(Cn1nc(C(F)(F)F)c2c1CCCC2)NC1CCC1 [VU937] | – | – | – | – | – | – | inactive | not tolerated
